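Assay format: 96-well plates, 48-hour exposure. Here, GI50 denotes the concentration required for 50% inhibition of growth. TGI denotes the concentration required for complete inhibition of growth.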

Some test systems named below: A498 renal; EKVX NSCLC; HCT-116 colon; KM12 colon; LOX IMVI melanoma; MOLT-4 leukemia; SF-539 CNS; SR leukemia; UACC-62 melanoma; UO-31 renal.
Experiment in all cases: growth of human tumour cells (NCI), 48 h

Take `CSC1=Nc2c(c(C)c(-c3ccccc3)n2CCCN2CCCCC2)C2=NC(=O)C[C@H](C)N12`: the GI50 in the assay with A498 renal is 2.6 µM; with EKVX NSCLC it was 3.06 µM; with HCT-116 colon, 2.71 µM; in the assay on KM12 colon it was 3.26 µM; in the assay with LOX IMVI melanoma, 3.16 µM; in the assay on MOLT-4 leukemia it was 4.38 µM. Besides, the GI50 is 6.07 µM in the assay on SF-539 CNS, 16.7 µM with SR leukemia, 3.17 µM in the assay on UACC-62 melanoma and 6.35 µM in the assay on UO-31 renal. Moreover, the TGI in the assay on A498 renal was 9.64 µM; in the assay with EKVX NSCLC, over 44.7 µM; in the assay with HCT-116 colon it was over 44.6 µM; in the assay with KM12 colon, 12.5 µM; in the assay with LOX IMVI melanoma, 13.4 µM; in the assay with MOLT-4 leukemia, over 22.5 µM. Further, the TGI in the assay with SF-539 CNS is 70.4 µM; with SR leukemia, over 100 µM; with UACC-62 melanoma, 15.4 µM; in the assay on UO-31 renal, 26 µM.

In the case of `O=C(c1ccco1)c1nc2cc(C(F)(F)F)ccc2nc1C(F)(F)F`, the GI50 in the assay with A498 renal, with EKVX NSCLC, in the assay on HCT-116 colon, with KM12 colon, with LOX IMVI melanoma and with MOLT-4 leukemia was over 100 µM each time. For the same compound, the GI50 was over 100 µM in the assay with SF-539 CNS, 40.5 µM in the assay on SR leukemia, over 100 µM in the assay on UACC-62 melanoma and over 100 µM in the assay on UO-31 renal. Moreover, the TGI in the assay on A498 renal, in the assay with EKVX NSCLC, in the assay on HCT-116 colon, in the assay on KM12 colon, with LOX IMVI melanoma and in the assay on MOLT-4 leukemia was over 100 µM in each case. Moreover, the TGI with SF-539 CNS, in the assay with SR leukemia, in the assay on UACC-62 melanoma and with UO-31 renal was over 100 µM throughout.

On to `O=C(COc1ccc(/C=C2\COc3ccccc3C2=O)cc1)Nc1nccs1`, for which the GI50 in the assay on A498 renal was 19.3 µM; in the assay on EKVX NSCLC it was 22.4 µM; in the assay with HCT-116 colon, 3.75 µM; with KM12 colon it was 3.28 µM; with LOX IMVI melanoma it was 2.64 µM; in the assay with MOLT-4 leukemia, 1.6 µM. Moreover, the GI50 is 15 µM in the assay with SF-539 CNS, 1.31 µM in the assay on SR leukemia, 7.69 µM in the assay with UACC-62 melanoma and 11.9 µM with UO-31 renal. Moreover, the TGI in the assay with A498 renal stood at 33.7 µM; with EKVX NSCLC it was 76.3 µM; in the assay on HCT-116 colon, 12.8 µM; with KM12 colon, 10.5 µM; in the assay with LOX IMVI melanoma it was 7.33 µM; in the assay on MOLT-4 leukemia, 3.76 µM. Also, the TGI with SF-539 CNS worked out at 29.4 µM; in the assay with SR leukemia it was 3.23 µM; in the assay on UACC-62 melanoma it was 21.1 µM; in the assay with UO-31 renal, 25.5 µM.

With `COC(=O)C(=O)C(C(=O)C(=O)Nc1cccc(C(C)=O)c1)c1nc2ccc([N+](=O)[O-])cc2[nH]c1=O` (centres undefined), the TGI in the assay on A498 renal, in the assay with EKVX NSCLC, in the assay with HCT-116 colon, in the assay with KM12 colon, in the assay with LOX IMVI melanoma and in the assay with MOLT-4 leukemia was over 100 µM in each case. Besides, the TGI with SF-539 CNS, with SR leukemia, in the assay with UACC-62 melanoma and in the assay with UO-31 renal was over 100 µM in each case.

`CN1CCC(COc2cnc(-c3cccc(Cn4nc(-c5cccc(C#N)c5)ccc4=O)c3)nc2)CC1`: the GI50 with A498 renal is 7.2 µM; with EKVX NSCLC, 9.45 µM; in the assay on HCT-116 colon, 2.41 µM; in the assay on KM12 colon, 4.36 µM; in the assay on LOX IMVI melanoma it was 1.93 µM; with MOLT-4 leukemia, 2.53 µM. Besides, the GI50 in the assay on SF-539 CNS was 1.7 µM; in the assay on SR leukemia, 2.08 µM; in the assay with UACC-62 melanoma, 2.07 µM; in the assay with UO-31 renal, 2.26 µM. Moreover, the TGI came out at 20.6 µM with A498 renal; 40 µM in the assay with EKVX NSCLC; 6.35 µM in the assay with HCT-116 colon; 16.5 µM in the assay with KM12 colon; 4.09 µM in the assay with LOX IMVI melanoma; 6.62 µM with MOLT-4 leukemia. For the same compound, the TGI turned out to be 3.3 µM in the assay on SF-539 CNS, 4.49 µM with SR leukemia, 4.54 µM in the assay with UACC-62 melanoma and 5.79 µM in the assay with UO-31 renal.

As for `O=[N+]([O-])c1ccc(C2CC(c3ccccc3Cl)=Nc3ccccc3S2)cc1` (centres undefined), the TGI in the assay on A498 renal is 17.4 µM; with EKVX NSCLC it was 31 µM; in the assay on HCT-116 colon it was 4.92 µM; with KM12 colon it was 13.4 µM; in the assay with LOX IMVI melanoma it was 11.8 µM; with MOLT-4 leukemia it was 5.37 µM. Moreover, the TGI in the assay with SF-539 CNS is 17.7 µM; in the assay on SR leukemia, 5.27 µM; with UACC-62 melanoma it was 16.1 µM; in the assay on UO-31 renal it was 36.8 µM.

For `NS(=O)(=O)OCC1OC(n2cnc3cncnc32)C(O)C1O` (centres undefined), the GI50 in the assay on A498 renal is 0.0216 µM; in the assay with EKVX NSCLC it was 0.064 µM; in the assay on HCT-116 colon, 0.0157 µM; with KM12 colon, 0.0179 µM; in the assay with LOX IMVI melanoma, 0.0228 µM; in the assay with MOLT-4 leukemia it was 0.0209 µM. Further, the GI50 with SF-539 CNS is 0.0206 µM; with SR leukemia, 0.0153 µM; with UACC-62 melanoma, 0.0371 µM; in the assay with UO-31 renal, 0.0256 µM. Besides, the TGI in the assay on A498 renal is 0.0821 µM; in the assay with EKVX NSCLC it was 0.647 µM; in the assay with HCT-116 colon, 0.033 µM; in the assay on KM12 colon, 0.0522 µM; in the assay on LOX IMVI melanoma, 0.0548 µM; with MOLT-4 leukemia, 2.42 µM. Besides, the TGI with SF-539 CNS amounted to 0.0467 µM; with SR leukemia, 21.6 µM; in the assay on UACC-62 melanoma, 0.133 µM; with UO-31 renal, 0.106 µM.

`COC(=O)[C@@H](C)C[C@H](Cc1cn(C)c2ccccc12)NC(=O)c1csc([C@@H](C[C@H](C(C)C)N(C)C(=O)[C@@H](NC(=O)[C@H]2CCCCN2C)C(C)C)OC(C)=O)n1`: the GI50 was 0.0456 µM in the assay on A498 renal; 0.044 µM in the assay with EKVX NSCLC; 0.00707 µM in the assay with HCT-116 colon; 0.0108 µM in the assay on KM12 colon; 0.011 µM in the assay with LOX IMVI melanoma; 0.013 µM with MOLT-4 leukemia. Moreover, the GI50 is 0.0173 µM in the assay on SF-539 CNS, 0.00298 µM with SR leukemia, 0.00745 µM in the assay on UACC-62 melanoma and 0.169 µM with UO-31 renal. Further, the TGI in the assay on A498 renal was 1.12 µM; in the assay with EKVX NSCLC, over 16.7 µM; in the assay on HCT-116 colon, over 16.7 µM; in the assay with KM12 colon, over 16.7 µM; in the assay with LOX IMVI melanoma, over 16.7 µM; in the assay on MOLT-4 leukemia, over 16.7 µM. Besides, the TGI with SF-539 CNS was 0.116 µM; in the assay with SR leukemia, over 16.7 µM; with UACC-62 melanoma, over 16.7 µM; with UO-31 renal it was over 16.7 µM.

As to `COC(=O)CCC(NC(=S)N/N=C/c1ccccn1)C(=O)OC` (centres undefined), the TGI in the assay with A498 renal, in the assay on EKVX NSCLC, in the assay with HCT-116 colon, in the assay with KM12 colon, in the assay with LOX IMVI melanoma and in the assay with MOLT-4 leukemia was over 100 µM throughout. The TGI in the assay with SF-539 CNS, with SR leukemia, in the assay on UACC-62 melanoma and in the assay on UO-31 renal was over 100 µM each time.

Turning to `C[C@]12CC[C@@H]3c4cc(OC(F)F)c(O)cc4CC[C@H]3[C@@H]1CC[C@@H]2OS(N)(=O)=O`, the GI50 was 0.321 µM in the assay on A498 renal; 1.51 µM with EKVX NSCLC; 0.419 µM in the assay on HCT-116 colon; 0.545 µM with KM12 colon; 0.585 µM with LOX IMVI melanoma; 0.598 µM with MOLT-4 leukemia. The GI50 is 0.455 µM in the assay on SF-539 CNS, 0.422 µM with SR leukemia, 0.403 µM in the assay on UACC-62 melanoma and 1.11 µM in the assay with UO-31 renal. The TGI in the assay on A498 renal was 4.35 µM; in the assay on EKVX NSCLC, over 100 µM; in the assay with HCT-116 colon it was 18.9 µM; in the assay on KM12 colon, 31 µM; in the assay on LOX IMVI melanoma, 22.6 µM; in the assay on MOLT-4 leukemia, over 100 µM. Further, the TGI with SF-539 CNS was 14.4 µM; in the assay on SR leukemia, over 100 µM; in the assay on UACC-62 melanoma, 18.2 µM; in the assay with UO-31 renal, 37.6 µM.

With `C=C(C)C1CC/C(C)=C/CCC2(C)OC2CC/C(CO)=C\C1O` (centres undefined), the TGI with A498 renal, in the assay with EKVX NSCLC, in the assay with HCT-116 colon, with KM12 colon, in the assay with LOX IMVI melanoma and with MOLT-4 leukemia was over 100 µM each time. The TGI in the assay with SF-539 CNS, with SR leukemia, in the assay on UACC-62 melanoma and with UO-31 renal was over 100 µM in each case.

On to `Cc1ccc(Cl)cc1Nc1nc(C(F)(F)F)ccc1C(=O)N/N=C/c1cccnc1`, for which the GI50 in the assay on A498 renal is 2.95 µM; with EKVX NSCLC, 1.32 µM; with HCT-116 colon, 2.34 µM; in the assay with KM12 colon, 3.19 µM; with LOX IMVI melanoma, 1.52 µM; in the assay with MOLT-4 leukemia, 1.42 µM. Besides, the GI50 is 2.45 µM in the assay on SF-539 CNS, 0.148 µM in the assay with SR leukemia, 3.25 µM in the assay on UACC-62 melanoma and 3.51 µM in the assay with UO-31 renal. For the same compound, the TGI with A498 renal amounted to 11.7 µM; with EKVX NSCLC, 9.01 µM; in the assay on HCT-116 colon, 14.4 µM; in the assay with KM12 colon, 11.8 µM; with LOX IMVI melanoma, 13.6 µM; in the assay on MOLT-4 leukemia, 10.7 µM. For the same compound, the TGI was found to be 10 µM in the assay on SF-539 CNS, 13.7 µM in the assay on UACC-62 melanoma and 16.2 µM in the assay with UO-31 renal.

In the case of `CC(=O)Nc1ccccc1-c1nc2ccccc2nc1C`, the TGI with A498 renal, in the assay on EKVX NSCLC, in the assay on HCT-116 colon, with KM12 colon, with LOX IMVI melanoma and in the assay on MOLT-4 leukemia was over 100 µM throughout. In addition, the TGI with SF-539 CNS, in the assay on SR leukemia, with UACC-62 melanoma and in the assay on UO-31 renal was over 100 µM throughout.
